≈ marks a conversion by molar mass, not a printed value. Where “and” joins values, the source holds several entries; their conditions need not be identical. Equal entries are not always repeated. Where two headings read alike, the source gives them in different places. Marks after values point to notes of the source that are not given here. Starred links: 1 amine or outer side, 2 acyl side, 3 side chain; linkers in the order of their positions; H or OH if unused. Positions of bridges follow the written chain, without caps; N, C: chain ends. Non-standard residues stand in square brackets, D forms with d. Residues, ends and D or L forms follow the SMILES beside them. *: point of attachment. dAsp(3R-OH) = N[C@@H](C(=O)O)[C@@H](O)C(=O)O; Palmitoleoyl = CCCCCC/C=C\CCCCCCCC(=O)*; X1 = NC[C@H](O)[C@@H](N[*:1])C(=O)[*:2]; X2 = CCC(C)(O)[C@H](N[*:1])C(=O)[*:2]; d(aIle) = CC[C@H](C)[C@@H](N)C(=O)O; Myristoyl = CCCCCCCCCCCCCC(=O)*; dOrn = NCCC[C@@H](N)C(=O)O; hSer = N[C@@H](CCO)C(=O)O
Columns and labels:
[1] = system: Enterococcus faecalis (ATCC 29212)
[2] = system: Acinetobacter baumannii (ATCC 19606)
[3] = system: Staphylococcus aureus
[4] = system: A. baylyi; type: cell-based, Acinetobacter baylyi; conditions: for sensitivity of Δ1ptE A. baylyi strain: at 8 μg/mL; for MIC against A. baylyi compared with A. baumannii: nonpathogenic relative A. baylyi; for nature of growth inhibition: plating of inhibited wells from A. baylyi broth cultures
[5] = system: Klebsiella pneumoniae (ATCC BAA-1705); type: cell-based
[6] = system: A. baumannii ATCC 17978; assay: Thigh infection neutropenic mouse model, efficacy (CFU/thigh); type: in vivo, Acinetobacter baumannii; conditions: for Decrease (%) / Δ / CFU/thigh Time post inoculation 2, 26 h / Log (CFU/thigh) Time post inoculation 2, 26 h / CFU/thigh Time post inoculation 2, 26 h, Mean / Log (CFU/thigh) Time post inoculation 2, 26 h, Mean / Dilution (CFU/plate) 0 / Dilution (CFU/plate) 10^1 / Dilution (CFU/plate) 10^2 / Dilution (CFU/plate) 10^3 / Dilution (CFU/plate) 10^4 / Dilution (CFU/plate) 10^5 / Dilution (CFU/plate) 10^6: BID, q12h; for Decrease (%) / Δ / CFU/thigh Time post inoculation 2, 26 h / Log (CFU/thigh) Time post inoculation 2, 26 h / CFU/thigh Time post inoculation 2, 26 h, Mean / Log (CFU/thigh) Time post inoculation 2, 26 h, Mean: 26 h; for Decrease (%): decrease in counts compared to the vehicle group; for Δ: difference in bacterial counts relative to the baseline group (2 h initial counts); for CFU/thigh Time post inoculation 2, 26 h / Log (CFU/thigh) Time post inoculation 2, 26 h: individual animals; for CFU/thigh Time post inoculation 2, 26 h, Mean / Log (CFU/thigh) Time post inoculation 2, 26 h, Mean: mean of 5 animals; for Dilution (CFU/plate) 0 / Dilution (CFU/plate) 10^1 / Dilution (CFU/plate) 10^2 / Dilution (CFU/plate) 10^3 / Dilution (CFU/plate) 10^4 / Dilution (CFU/plate) 10^5 / Dilution (CFU/plate) 10^6: raw data; for Dilution (CFU/plate) 0: dilution 0, individual animals; for Dilution (CFU/plate) 10^1: dilution 10^1, individual animals; for Dilution (CFU/plate) 10^2: dilution 10^2, individual animals; for Dilution (CFU/plate) 10^3: dilution 10^3, individual animals; for Dilution (CFU/plate) 10^4: dilution 10^4, individual animals; for Dilution (CFU/plate) 10^5: dilution 10^5, individual animals; for Dilution (CFU/plate) 10^6: dilution 10^6, individual animals
[7] = system: Escherichia coli; type: cell-based
[8] = system: HEK-293 cells
[9] = system: mouse red blood cell
[10] = human, in vivo; cited from earlier work
[11] = system: clinical A. baumannii complex isolates

## CCCCCCCCCCCCCC(=O)N[C@H](CCCN)C(=O)N[C@@H](CO)C(=O)N[C@H](C(=O)N[C@@H](C(=O)N[C@@H](C(=O)N[C@@H]1C(=O)NCC(=O)N[C@@H](C(C)(O)CC)C(=O)N[C@H]([C@@H](C)CC)C(=O)N[C@@H](CCO)C(=O)N[C@@H](C)C(=O)N[C@H]([C@@H](C)CC)C(=O)N[C@@H](CCC(=O)O)C(=O)O[C@@H]1C)[C@@H](O)CN)[C@@H](O)C(=O)O)C(C)C (stereo partly drawn) [Compound 1, Turnercyclamycin A] (Myristoyl-[dOrn]SV[dAsp(3R-OH)][X1]TG[X2][d(aIle)][hSer]A[d(aIle)]E; ester 6-C)
[1]
  MIC90: >64 µg/mL
[2]
  MIC90: 8 µg/mL (≈ 5.09 µM)
[2]; ATCC 19606
  MIC: 8 µg/mL (≈ 5.09 µM)
[3]
  MIC90: >64 µg/mL
  decrease of Staphylococcus aureus growth: 50%
[4]
  sensitivity of Δ1ptE A. baylyi strain: still sensitive
  MIC against A. baylyi compared with A. baumannii: same MIC
  nature of growth inhibition: bactericidal, not bacteriostatic
[5]
  MIC90: 2 µg/mL (≈ 1.27 µM)
[6]; 6.25 mg/kg IV
  Decrease (%): 27%
  Δ: 2.27
  CFU/thigh Time post inoculation 2, 26 h: 4.59 × 10^7 CFU/thigh and 3.63 × 10^7 CFU/thigh and 4.62 × 10^7 CFU/thigh and 6.93 × 10^7 CFU/thigh and 7.71 × 10^7 CFU/thigh
  Log (CFU/thigh) Time post inoculation 2, 26 h: 7.66 Log (CFU/thigh) (2×) and 7.56 Log (CFU/thigh) and 7.84 Log (CFU/thigh) and 7.89 Log (CFU/thigh)
  CFU/thigh Time post inoculation 2, 26 h, Mean: 5.50 × 10^7 CFU/thigh
  Log (CFU/thigh) Time post inoculation 2, 26 h, Mean: 7.72 Log (CFU/thigh)
  Dilution (CFU/plate) 0: >300 CFU/plate
  Dilution (CFU/plate) 10^1: >300 CFU/plate
  Dilution (CFU/plate) 10^2: >300 CFU/plate
  Dilution (CFU/plate) 10^3: >300 CFU/plate
  Dilution (CFU/plate) 10^4: 153 CFU/plate and 121 CFU/plate and 154 CFU/plate and 231 CFU/plate and 257 CFU/plate
  Dilution (CFU/plate) 10^5: 21 CFU/plate and 9 CFU/plate and 16 CFU/plate and 24 CFU/plate and 26 CFU/plate
  Dilution (CFU/plate) 10^6: 3 CFU/plate (2×) and 1 CFU/plate and 0 CFU/plate and 2 CFU/plate
[6]; 12.5 mg/kg IV twice daily, p<0.05, CFU at 26 hours
  decrease in bacterial CFU/thigh: 98%
[6]; 12.5 mg/kg IV
  Decrease (%): 98%
  Δ: 0.10
  CFU/thigh Time post inoculation 2, 26 h: 5.67 × 10^5 CFU/thigh and 7.02 × 10^6 CFU/thigh and 7.89 × 10^5 CFU/thigh and 1.32 × 10^5 CFU/thigh and 1.35 × 10^4 CFU/thigh
  Log (CFU/thigh) Time post inoculation 2, 26 h: 5.75 Log (CFU/thigh) and 6.85 Log (CFU/thigh) and 5.90 Log (CFU/thigh) and 5.12 Log (CFU/thigh) and 4.13 Log (CFU/thigh)
  CFU/thigh Time post inoculation 2, 26 h, Mean: 1.70 × 10^6 CFU/thigh
  Log (CFU/thigh) Time post inoculation 2, 26 h, Mean: 5.55* Log (CFU/thigh)
  Dilution (CFU/plate) 0: >300 CFU/plate
  Dilution (CFU/plate) 10^1: >300 CFU/plate (4×) and 45 CFU/plate
  Dilution (CFU/plate) 10^2: 189 CFU/plate and >300 CFU/plate and 263 CFU/plate and 44 CFU/plate and 4 CFU/plate
  Dilution (CFU/plate) 10^3: 12 CFU/plate and 234 CFU/plate and 24 CFU/plate and 2 CFU/plate and 0 CFU/plate
  Dilution (CFU/plate) 10^4: 0 CFU/plate (2×) and 1 CFU/plate and 28 CFU/plate and 2 CFU/plate
  Dilution (CFU/plate) 10^5: 0 CFU/plate (4×) and 1 CFU/plate
  Dilution (CFU/plate) 10^6: 0 CFU/plate
[6]; 25 mg/kg IV twice daily, CFU at 26 hours
  clearing of bacterial CFU/thigh: 99.99%
[6]; 25 mg/kg IV
  Decrease (%): 100%
  Δ: −1.65^#
  CFU/thigh Time post inoculation 2, 26 h: 5.91 × 10^3 CFU/thigh and 7.68 × 10^3 CFU/thigh and 8.76 × 10^3 CFU/thigh and 1.38 × 10^4 CFU/thigh and 1.89 × 10^3 CFU/thigh
  Log (CFU/thigh) Time post inoculation 2, 26 h: 3.77 Log (CFU/thigh) and 3.89 Log (CFU/thigh) and 3.94 Log (CFU/thigh) and 4.14 Log (CFU/thigh) and 3.28 Log (CFU/thigh)
  CFU/thigh Time post inoculation 2, 26 h, Mean: 7.61 × 10^3 CFU/thigh
  Log (CFU/thigh) Time post inoculation 2, 26 h, Mean: 3.80* Log (CFU/thigh)
  Dilution (CFU/plate) 0: 197 CFU/plate and 256 CFU/plate and 292 CFU/plate and >300 CFU/plate and 63 CFU/plate
  Dilution (CFU/plate) 10^1: 26 CFU/plate and 32 CFU/plate and 29 CFU/plate and 46 CFU/plate and 8 CFU/plate
  Dilution (CFU/plate) 10^2: 3 CFU/plate (2×) and 1 CFU/plate (2×) and 4 CFU/plate
  Dilution (CFU/plate) 10^3: 0 CFU/plate
  Dilution (CFU/plate) 10^4: 0 CFU/plate
  Dilution (CFU/plate) 10^5: 0 CFU/plate
  Dilution (CFU/plate) 10^6: 0 CFU/plate
[7]
  MIC90: 1 µg/mL (≈ 0.636 µM)

## CCCCCC/C=C\CCCCCCCC(=O)N[C@H](CCCN)C(=O)N[C@@H](CO)C(=O)N[C@H](C(=O)N[C@@H](C(=O)N[C@@H](C(=O)N[C@@H]1C(=O)NCC(=O)N[C@@H](C(C)(O)CC)C(=O)N[C@H]([C@@H](C)CC)C(=O)N[C@@H](CCO)C(=O)N[C@@H](C)C(=O)N[C@H]([C@@H](C)CC)C(=O)N[C@@H](CCC(=O)O)C(=O)O[C@@H]1C)[C@@H](O)CN)[C@@H](O)C(=O)O)C(C)C (stereo partly drawn) [Compound 2, Turnercyclamycin B] (Palmitoleoyl-[dOrn]SV[dAsp(3R-OH)][X1]TG[X2][d(aIle)][hSer]A[d(aIle)]E; ester 6-C)
[1]
  MIC90: >64 µg/mL
[8]
  IC50 against HEK-293: failed to calculate an IC50 value
[2]
  MIC90: 8 µg/mL (≈ 5 µM)
[2]; ATCC 19606
  MIC: 8 µg/mL (≈ 5 µM)
[3]
  MIC90: >64 µg/mL
  decrease of Staphylococcus aureus growth: 50%
[4]
  sensitivity of Δ1ptE A. baylyi strain: still sensitive
  MIC against A. baylyi compared with A. baumannii: same MIC
  nature of growth inhibition: bactericidal, not bacteriostatic
[9]
  hemolytic activity, no activity up to: > 64 µg/mL
[5]
  MIC90: 2 µg/mL (≈ 1.25 µM)
[7]
  MIC90: 1 µg/mL (≈ 0.625 µM)

## CCCCCCCCCC(=O)N[C@@H](Cc1c[nH]c2ccccc12)C(=O)N[C@H](CC(N)=O)C(=O)N[C@@H](CC(=O)O)C(=O)N[C@@H]1C(=O)NCC(=O)N[C@@H](CCCN)C(=O)N[C@@H](CC(=O)O)C(=O)N[C@H](C)C(=O)N[C@@H](CC(=O)O)C(=O)NCC(=O)N[C@H](CO)C(=O)N[C@@H]([C@H](C)CC(=O)O)C(=O)N[C@@H](CC(=O)c2ccccc2N)C(=O)O[C@@H]1C [Daptomycin]
[10]
  Half Life: ~8 h
  Vss: ~0.1 L/kg
  clearance: ~0.15 mL/min/kg

## Colistin [reference compound]
[2]
  MIC: 2 µg/mL
[11]; ARUP ABC 1
  MIC: 4 µg/mL
[11]; ARUP ABC 2
  MIC: 4 µg/mL
[11]; ARUP ABC 3
  MIC: >32 µg/mL
[11]; CDC AB282
  MIC: 1 µg/mL
[11]; CDC AB286
  MIC: 1 µg/mL
[11]; CDC AB299
  MIC: 2 µg/mL
[11]; CDC AB302
  MIC: 2 µg/mL
[11]; CDC AB303
  MIC: >32 µg/mL
[11]; CDC AB307
  MIC: 8 µg/mL
[6]; 30 mg/kg SC
  Decrease (%): 100%
  Δ: −2.73^#
  CFU/thigh Time post inoculation 2, 26 h: 1.77 × 10^3 CFU/thigh and 5.73 × 10^3 CFU/thigh and 5.64 × 10^3 CFU/thigh and 1.98 × 10^3 CFU/thigh and 3.57 × 10^3 CFU/thigh
  Log (CFU/thigh) Time post inoculation 2, 26 h: 3.25 Log (CFU/thigh) and 3.76 Log (CFU/thigh) and 3.75 Log (CFU/thigh) and 3.30 Log (CFU/thigh) and 3.55 Log (CFU/thigh)
  CFU/thigh Time post inoculation 2, 26 h, Mean: 3.74 × 10^3 CFU/thigh
  Log (CFU/thigh) Time post inoculation 2, 26 h, Mean: 3.52* Log (CFU/thigh)
  Dilution (CFU/plate) 0: 59 CFU/plate and 191 CFU/plate and 188 CFU/plate and 66 CFU/plate and 119 CFU/plate
  Dilution (CFU/plate) 10^1: 3 CFU/plate and 20 CFU/plate and 21 CFU/plate and 8 CFU/plate and 13 CFU/plate
  Dilution (CFU/plate) 10^2: 0 CFU/plate (3×) and 1 CFU/plate (2×)
  Dilution (CFU/plate) 10^3: 0 CFU/plate
